Patent US6376753B1, “PURIFIED CYTOCHROME P450 POLYPEPTIDE CYP76B1 FROM HELIANTHUS TUBEROSUS AND ITS APPLICATIONS AS BIOCATALYST IN PARTICULAR FOR THE DEGRADATION OF ENVIRONMENTAL POLLUTANTS AND FOR ALTERING THE RESISTANCE OF PLANTS SENSITIVE TO PHENYLUREA FAMILY OF HERBICIDES” (priority 1997, dated 2002)
Like-named read-outs stand apart in the source and are kept apart here.

How the values were obtained:
[1] = biological target: T1, CYP76B1 (Helianthus tuberosus, UniProt O23976); assay: CYP76B1-dependent metabolism (O-/N-dealkylation) in microsomes of transformed yeast; settings: for metabolite detection for endogenous molecules: transformed WAT11 yeast microsomes; for Activity: + NADPH; for turnover of the dealkylation: for phenylureas first dealkylation; for conversion / dealkylation by CYP76B1: transformed yeast microsomes, NADPH
T1 sequence (O23976 1-490): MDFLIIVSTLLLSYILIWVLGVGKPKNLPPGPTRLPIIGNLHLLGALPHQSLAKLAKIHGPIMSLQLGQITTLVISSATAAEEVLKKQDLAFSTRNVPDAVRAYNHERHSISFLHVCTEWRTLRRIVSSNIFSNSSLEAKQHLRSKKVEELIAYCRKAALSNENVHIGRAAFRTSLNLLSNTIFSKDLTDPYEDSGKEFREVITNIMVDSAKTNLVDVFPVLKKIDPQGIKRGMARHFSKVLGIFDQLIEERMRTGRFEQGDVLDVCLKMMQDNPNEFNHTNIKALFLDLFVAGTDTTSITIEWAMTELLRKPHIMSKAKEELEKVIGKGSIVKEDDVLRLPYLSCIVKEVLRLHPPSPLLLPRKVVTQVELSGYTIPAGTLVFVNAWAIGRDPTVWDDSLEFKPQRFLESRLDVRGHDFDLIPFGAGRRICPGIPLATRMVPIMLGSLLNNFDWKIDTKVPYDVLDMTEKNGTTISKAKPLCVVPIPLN
Method: BamHI and EcoRI sites were introduced by PCR just upstream of the ATG and downstream of the stop codon of the CYP76B1 coding sequence, using the primers 5′-[…] (sense) 5′-[…] (reverse) (SEQ ID NO 3 and SEQ ID NO 4 respectively). The PCR mixture was preheated for 2 min at 92° C. before addition of 1 unit of Pfu DNA polymerase (Stratagene). After 3 min additional heating at 92° C., 30 cycles of amplification were carried out as follows 1 min denaturation at 92° C., 1 min annealing at 52° C., 2 min extension at 72° C. The reaction was completed by 10 min extension at 72° C. After BamHI/EcoRI digestion, the 1470 bp coding sequence was inserted into the vector pYeDP60 (32). Transformation of Saccharomyces cerevisiae W(R), WAT11 and WAT21, and yeast growth were conducted according to Pompon et al. (32). Yeast microsomes were prepared as described in Pierrel et al. (33) with addition of 1% SAB, 2 mM β-mercaptoethanol, 10 mM sodium disulfite and 1 mM PMSF to the extraction buffer. When indicated, 0.5 mM δ-aminolevulinic acid methyl ester (Sigma) was added to the induction medium, or cells were stored at 4° C. for 24 h before preparation of the microsomes.
(§1) Spectrophotometric measurements of P450 content and substrate binding were performed as in (Gabriac et al., 1991) and SDS-PAGE was performed as in Gabriac et al. (34). Gels were stained with Coomassie Blue R-250. Alkoxycoumarins and alkoxyresorufins O-dealkylation was measured by fluorometry (Werck-Reichhart et al., 1990). The data are means ± S.D. of triplicates.
The conversion of other molecules was assayed by TLC or HPLC analysis of polar metabolites formed from radiolabeled compounds (Cabello-Hurtado et al., 1998a, b). NADPH-cytochrome c reductase was assayed according to (Benveniste et al., 1986). Kinetic data were fitted using the nonlinear regression program […] (Duggleby, 1984).
10 μL of non-immune serum or of serum raised against purified ECOD fraction were preincubated 2 min at room temperature with 10 μL of microsomes before addition of the reaction mix. n.d.: not detectable.
Conversion was estimated from the sum of the two polar metabolites detected after TLC analysis. Data are means + S.D. of two to four determinations. n.d.: not detected.
CYP76B1 concentrations in the MCOD, ECOD, MROD and EROD fluorometric assays were 1.5 nM or 2.1 nM, depending on the coexpressed ATR1 or yeast reductases. In the CTUDM assays, CYP76B1 concentrations were 1.7 nM (ATR1) and 8 nM (yeast), respectively. It was 12 nM for the determination of the catalytic parameters of monodemethyl-CTUDM, and 1.7 nM (ATR1) or 20 nM (yeast) in the IPUDM assays. Products were quantified by direct TLC analysis of 100 μL of the acidified incubation medium after 6 min incubation at 30° C. for the CTUDM and IPUDM assays, and after 9 min incubation for the monodemethyl-CTUDM.

[2] = tested on: 7-methoxyresorufin O-dealkylase activity; assay: Induction of 7-methoxyresorufin O-demethylase activity in tuber slices; format: cell-based, Helianthus tuberosus; settings: 48 hours of treatment
Method: Slices of dormant tuber of Helianthus tuberosus were placed under survival conditions in oxygenated distilled water and stirred with a current of compressed air in the presence of various metals or organic compounds (effectors).
A control was performed with DMSO alone.

[3] = biological target: T1, CYP76B1; assay: biochemical; settings: for ΔAmax × 10^−3: at saturating ligand concentration
Method: as §1
The binding of substrates into the catalytic site of a P450 usually induces a shift of its maximum of absorbance, redox potential and iron spin state (Raag and Poulos, 1989) resulting from the displacement of the water sixth ligand of the heme iron. It is easily detected by differential spectrophotometry as a so-called type I spectrum with a peak at 390 nm and a trough at 420 nm (Jefcoate, 1978). The variation of the differential absorbance ΔA390-420 versus substrate concentration allows the calculation of an apparent dissociation constant (Ks). A high ΔAmax induced by the ligand is usually an indication of correct positioning for catalysis.
CYP76B1 was 60 nM in the assays. Difference spectra were recorded after the addition of increasing concentrations of ligands to the sample cuvette. An equal volume of the herbicide solvent (DMSO) was added to the reference. Ks and ΔAmax at saturating ligand concentration were calculated from the double-reciprocal plots of ΔA(390-420 nm) versus substrate concentrations.

[4] = coexpressed reductase ATR1 (WAT11)
[5] = coexpressed yeast reductase (W(R))
[6] = read-out: KS (apparent dissociation constant), CYP76B1 60 nM, ΔA(390-420 nm) double-reciprocal plots

Molecule: CCCCCCCCCC(=O)O [capric, capric acid]
- metabolite detection for endogenous molecules [1]: No metabolite

Molecule: O=C1OC(=O)c2cccc3cccc1c23 [naphthalic anhydride, 1,8-Naphthalic anhydride]
- induction of 7-methoxyresorufin O-dealkylase activity [2]: very strongly induced

Molecule: CCCCCCCCCCCCCCCC(=O)O [palmitic, palmitic acid]
- metabolite detection for endogenous molecules [1]: No metabolite

Molecule: Cl[C@H]1[C@H](Cl)[C@@H](Cl)[C@@H](Cl)[C@H](Cl)[C@H]1Cl [lindane]
- induction of 7-methoxyresorufin O-dealkylase activity [2]: very strongly induced

Molecule: CC/C=C\C/C=C\C/C=C\CCCCCCCC(=O)O [linolenic, linolenic acid]
- metabolite detection for endogenous molecules [1]: No metabolite

Molecule: COc1c2occc2cc2ccc(=O)oc12 [8-methoxypsoralen]
- induction of 7-methoxyresorufin O-dealkylase activity [2]: very strongly induced

Molecule: CC(C)c1ccc(NC(=O)N(C)C)cc1 [Isoproturon, N-(4-isopropylphenyl)-N′,N′-dimethylurea]
- Kd [3]: 55 µM
- ΔAmax × 10^−3 ([3]; CYP76B1 60 nM): 8.2 × 10^−3
- Activity ([1]; W(R) strain): 128 pkat mg-1 protein
- turnover of the dealkylation ([1]; W(R) strain): 40 min⁻¹
- Activity ([1]; WAT11 strain): 475 pkat mg-1 protein
- turnover of the dealkylation ([1]; WAT11 strain): 147 min⁻¹
- Kcat [1, 4]: 2.45 s⁻¹
- Kcat [1, 5]: 0.667 s⁻¹

Molecule: CCOc1ccc2nc3ccc(=O)cc-3oc2c1 [7-ethoxyresorufin]
- Activity ([1]; W(R) strain): 5.1 pkat mg-1 protein
- turnover of the dealkylation ([1]; W(R) strain): 6 min⁻¹
- Activity ([1]; WAT11 strain): 11.6 pkat mg-1 protein
- turnover of the dealkylation ([1]; WAT11 strain): 22 min⁻¹
- Kcat [1, 4]: 0.467 s⁻¹
- Km [1, 4]: 0.17 µM

Molecule: CCCCCCCCCCCCCC(=O)O [myristic, myristic acid]
- metabolite detection for endogenous molecules [1]: No metabolite

Molecule: CON(C)C(=O)Nc1ccc(Br)c(Cl)c1 [Chlorbromuron]
- Kd [3]: 5.3 µM
- ΔAmax × 10^−3 ([3]; CYP76B1 60 nM): 6.7 × 10^−3
- conversion / dealkylation by CYP76B1 [1]: dealkylates

Molecule: CON(C)C(=O)Nc1ccc(Br)cc1 [Metobromuron]
- Kd [3, 6]: 6.2 µM

Molecule: O=C(O)/C=C/c1ccccc1 [cinnamate, trans-Cinnamic acid]
- metabolite detection for endogenous molecules [1]: No metabolite

Molecule: COc1ccc2ccc(=O)oc2c1 [7-methoxycoumarin, 7-Methoxycoumarin]
- Activity ([1]; W(R) strain): 10.9 pkat mg-1 protein
- turnover of the dealkylation ([1]; W(R) strain): 13 min⁻¹
- Activity ([1]; WAT11 strain): 16.4 pkat mg-1 protein
- turnover of the dealkylation ([1]; WAT11 strain): 31 min⁻¹

Molecule: COc1ccc2nc3ccc(=O)cc-3oc2c1 [7-methoxyresorufin]
- Activity ([1]; W(R) strain): 12.6 pkat mg-1 protein
- turnover of the dealkylation ([1]; W(R) strain): 15 min⁻¹
- Activity ([1]; WAT11 strain): 18.6 pkat mg-1 protein
- turnover of the dealkylation ([1]; WAT11 strain): 41 min⁻¹
- Kcat [1, 4]: 0.683 s⁻¹
- Km [1, 4]: 0.17 µM
- Kcat ([1]; coexpressed reductase ATR2): 0.717 s⁻¹
- Km ([1]; coexpressed reductase ATR2): 0.185 µM
- Kcat [1, 5]: 0.25 s⁻¹
- Km [1, 5]: 0.23 µM

Molecule: CC1=CC(=O)CC(C)(C)C1(O)/C=C/C(C)=C\C(=O)O (stereo not shown) [abcisic acid]
- metabolite detection for endogenous molecules [1]: No metabolite

Molecule: CCCCC/C=C\C/C=C\CCCCCCCC(=O)O [linoleic, linoleic acid]
- metabolite detection for endogenous molecules [1]: No metabolite

Molecule: Cc1ccc2cc3c(ccc4ccccc43)c3c2c1CC3 [3-methylcholanthrene]
- induction of 7-methoxyresorufin O-dealkylase activity [2]: very strongly induced

Molecule: C=C(CC[C@@H](C)[C@H]1CC[C@@]2(C)C3=C(CC[C@]12C)[C@@]1(C)CC[C@H](O)[C@@H](C)[C@@H]1CC3)C(C)C [obtusifoliol]
- metabolite detection for endogenous molecules [1]: No metabolite

Molecule: COc1cc2oc(=O)ccc2cc1O [isoscopoletin]
- metabolite detection for endogenous molecules [1]: No metabolite

Molecule: CON(C)C(=O)Nc1ccc(Cl)cc1 [Monolinuron]
- Kd [3]: 4.8 µM
- conversion / dealkylation by CYP76B1 [1]: dealkylates

Molecule: Metoxuron
- ΔAmax × 10^−3 ([3]; CYP76B1 60 nM): 6.1 × 10^−3
- Kd [3, 6]: 117 µM

Molecule: COc1cc(/C=C/C(=O)O)ccc1O [ferulate, ferulic acid]
- metabolite detection for endogenous molecules [1]: No metabolite

Molecule: CNC(=O)Nc1ccc(C)c(Cl)c1 [monodemethyl-chlortoluron]
- Kcat [1, 4]: 0.767 s⁻¹
- Km [1, 4]: 81 µM
- conversion / dealkylation by CYP76B1 [1]: actively dealkylated

Molecule: mercury
- induction of 7-methoxyresorufin O-dealkylase activity [2]: very strongly induced

Molecule: CCCCCCCCCCCC(=O)O [lauric, lauric acid]
- metabolite detection for endogenous molecules [1]: No metabolite

Molecule: O=C(O)c1ccccc1 [benzoate, Benzoic acid]
- metabolite detection for endogenous molecules [1]: No metabolite

Molecule: O=C1C[C@@H](c2ccc(O)cc2)Oc2cc(O)cc(O)c21 [naringenin]
- metabolite detection for endogenous molecules [1]: No metabolite

Molecule: CCCCCCCC/C=C\CCCCCCCC(=O)O [oleic, oleic acid]
- metabolite detection for endogenous molecules [1]: No metabolite

Molecule: c1ccc2c(c1)cc1ccc3cccc4ccc2c1c34 [benzo(a)pyrene]
- induction of 7-methoxyresorufin O-dealkylase activity [2]: very strongly induced

Molecule: COc1cc2ccc(=O)oc2cc1O [scopoletin]
- metabolite detection for endogenous molecules [1]: No metabolite

Molecule: CCCCC(CC)COC(=O)c1ccccc1C(=O)OCC(CC)CCCC (stereo not shown) [diethylhexylphthalate]
- induction of 7-methoxyresorufin O-dealkylase activity [2]: very strongly induced
